According to US9452990B2, “Complement pathway modulators and uses thereof” (NOVARTIS AG, priority 2012, dated 2016):
Where a name gives a salt, the structure may show the parent alone. Read-outs that look alike come from different tables or passages of the source.

Biological target: human complement factor B (CVF-Bb complex) (Homo sapiens (Human), UniProt P00751)
Assay: Human Complement Factor B ELISA Assay
Type: biochemical
Procedure, shortened: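 Preformed CVF-Bb complex (3 nM; cobra venom factor with recombinant human factors B and D) preincubated with compound 1 h, RT, in PBS pH 7.4, 10 mM MgCl2, 0.05% CHAPS. Plasma C3 added at 1 μM final for 1 h, then stopped; C3a product measured by ELISA, IC50 from % inhibition.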

[1] = CVF-Bb complex 3 nM, 1 hour preincubation with compound at room temperature, human C3 substrate 1 μM, C3a quantified by ELISA, read-out: Factor B IC50

SMILES	IC50 [nM]	IC50 [1] [nM]
COc1cc2c(N)nc(N3CCN(C(=O)C[C@@H](N)c4ccc(F)cc4)C[C@@H]3c3ccccc3)nc2c(F)c1OC [Example 69, (R)-3-Amino-1-[(S)-4-(4-amino-8-fluoro-6,7-dimethoxy-quinazolin-2-yl)-3-phenyl-piperazin-1-yl]-3-(4-fluoro-phenyl)-propan-1-one hydrochloride]	7	–
COCCOc1c(OC)cc2c(N)nc(N3CCN(C(=O)C[C@@H](N)c4ccc(C#N)cc4)CC3)nc2c1F [Example 70, 4-((R)-1-Amino-3-{4-[4-amino-8-fluoro-6-methoxy-7-(2-methoxy-ethoxy)-quinazolin-2-yl]-piperazin-1-yl}-3-oxo-propyl)benzonitrile]	–	110
COCCOc1c(OC)cc2c(N)nc(N3CCN(C(=O)C[C@@H](N)c4ccc(C#N)cc4)C[C@@H]3C)nc2c1F [Example 71]	–	70
CN[C@H](CC(=O)N1CCN(c2nc(N)c3cc(OC)c(OC)c(F)c3n2)CC1)c1ccccc1 [Example 72, (R)-1-[4-(4-Amino-8-fluoro-6,7-dimethoxy-quinazolin-2-yl)-piperazin-1-yl]-3-methylamino-3-phenyl-propan-1-one]	–	230
COc1cc2c(N)nc(N3C[C@@H](C)N(C(=O)C[C@@H](N)c4ccccc4)C[C@@H]3C)nc2c(F)c1OC [Example 73, (R)-3-Amino-1-[(2R,5S)-4-(4-amino-8-fluoro-6,7-dimethoxy-quinazolin-2-yl)-2,5-dimethyl-piperazin-1-yl]-3-phenyl-propan-1-one]	–	60
COc1cc2c(N)nc(N3C[C@@H](C)N(C(=O)C[C@@H](N)c4ccc(F)cc4)C[C@@H]3C)nc2c(F)c1OC [Example 74, (R)-3-amino-1-[(2R,5S)-4-(4-amino-8-fluoro-6,7-dimethoxy-quinazolin-2-yl)-2,5-dimethyl-piperazin-1-yl]-3-(4-fluorophenyl)-propan-1-one]	–	50
COc1cc2c(N)nc(N3CCN(C(=O)C[C@@H](N)c4ccccc4)CC3)nc2c(C#N)c1OC [Example 75, 4-Amino-2-[4-((R)-3-amino-3-phenyl-propionyl)-piperazin-1-yl]-6,7-dimethoxy-quinazoline-8-carbonitrile]	–	760
COc1cc2c(N)nc(N3CCN(C(=O)C[C@@H](N)c4ccc(F)cc4)CC3)nc2c(C#N)c1OC [Example 76, 4-Amino-2-{4-[(R)-3-amino-3-(4-fluoro-phenyl)-propionyl]-piperazin-1-yl}-6,7-dimethoxy-quinazoline-8-carbonitrile]	–	100
CN[C@H](CC(=O)N1CCN(c2nc(N)c3cc(OC)c(OC)c(F)c3n2)CC1)c1ccc(C#N)cc1 [Example 77, (R)-4-(3-(4-(4-amino-8-fluoro-6,7-dimethoxyquinazolin-2-yl)piperazin-1-yl)-1-(methylamino)-3-oxopropyl)benzonitrile]	–	4
CN[C@H](CC(=O)N1CCN(c2nc(N)c3cc(OC)c(OC)c(F)c3n2)CC1)C1CCCCC1 [Example 78, (R)-1-(4-(4-amino-8-fluoro-6,7-dimethoxyquinazolin-2-yl)piperazin-1-yl)-3-cyclohexyl-3-(methylamino)propan-1-one]	–	80
[2H]C([2H])([2H])N[C@H](CC(=O)N1CCN(c2nc(N)c3cc(OC)c(OC)c(F)c3n2)CC1)c1ccccc1 [Example 79, (R)-1-[4-(4-Amino-8-fluoro-6,7-dimethoxy-quinazolin-2-yl)-piperazin-1-yl]-3-d^3-methylamino-3-phenyl-propan-1-one hydrochloride]	–	50
[2H]C([2H])([2H])N[C@H](CC(=O)N1CCN(c2nc(N)c3cc(OC)c(OC)c(F)c3n2)CC1)c1ccc(F)cc1 [Example 80, (R)-1-(4-(4-Amino-8-fluoro-6,7-dimethoxyquinazolin-2-yl)piperazin-1-yl)-3-(4-fluorophenyl)-3-(d^3-methylamino)propan-1-one hydrochloride]	–	6
COc1cc2c(N)nc(N3CCN(C(=O)C[C@@H](N)c4ccccc4)CC3)nc2c(Br)c1OC [Example 81, (R)-3-amino-1-(4-(4-Amino-8-bromo-6,7-dimethoxyquinazolin-2-yl)piperazin-1-yl)-3-phenylpropan-1-one]	–	510
COc1cc2c(N)nc(N3CCN(C(=O)C[C@@H](N)c4ccc(F)cc4)CC3)nc2c(Cl)c1OC [Example 82, (R)-3-Amino-1-(4-(4-amino-8-chloro-6,7-dimethoxyquinazolin-2-yl)piperazin-1-yl)-3-(4-fluorophenyl)propan-1-one]	–	1020
COc1cc2nc(N3CCN(C(=O)C[C@@H](N)c4ccc(F)cc4)CC3)nc(N)c2c(F)c1OC [Example 83, (R)-3-Amino-1-[4-(4-amino-5-fluoro-6,7-dimethoxy-quinazolin-2-yl)-piperazin-1-yl]-3-(4-fluoro-phenyl)-propan-1-one]	–	30
CCN[C@H](CC(=O)N1CCN(c2nc(N)c3cc(OC)c(OC)c(F)c3n2)CC1)c1ccc(F)cc1 [Example 84, (R)-1-[4-(4-Amino-8-fluoro-6,7-dimethoxy-quinazolin-2-yl)-piperazin-1-yl]-3-ethylamino-3-(4-fluoro-phenyl)-propan-1-one]	–	6

SMILES	IC50 [nM]	IC50 [1] [nM]
COc1cc2c(N)nc(N3CCN(C(=O)C[C@H](c4ccccc4)N(C)C)CC3)nc2c(F)c1OC [Example 85, (R)-1-[4-(4-Amino-8-fluoro-6,7-dimethoxy-quinazolin-2-yl)-piperazin-1-yl]-3-dimethylamino-3-phenyl-propan-1-one]	–	80
COc1cc2c(N)nc(N3CCN(C(=O)C[C@H](c4ccc(F)cc4)N(C)C)CC3)nc2c(F)c1OC [Example 86]	–	40
COc1cc2c(N)nc(N3CCN(C(=O)C[C@@H](NC(CF)CF)c4ccc(F)cc4)CC3)nc2c(F)c1OC [Example 87, (R)-1-(4-(4-amino-8-fluoro-6,7-dimethoxyquinazolin-2-yl)piperazin-1-yl)-3-(1,3-difluoropropan-2-ylamino)-3-(4-fluorophenyl)propan-1-one]	–	40
COc1cc2c(N)nc(N3CCN(C(=O)C[C@@H](NCC(F)(F)F)c4ccc(F)cc4)CC3)nc2c(F)c1OC [Example 88, (R)-1-[4-(4-Amino-8-fluoro-6,7-dimethoxy-quinazolin-2-yl)-piperazin-1-yl]-3-(4-fluoro-phenyl)-3-(2,2,2-trifluoro-ethylamino)-propan-1-one]	–	30
COc1cc2c(N)nc(N3CCN(C(=O)C[C@@H](NC(C)C)c4ccc(F)cc4)CC3)nc2c(F)c1OC [Example 89, (R)-1-[4-(4-Amino-8-fluoro-6,7-dimethoxy-quinazolin-2-yl)-piperazin-1-yl]-3-(4-fluoro-phenyl)-3-isopropylamino-propan-1-one]	–	30
CCN[C@H](CC(=O)N1CCN(c2nc(N)c3cc(OC)c(OC)c(F)c3n2)CC1)c1ccc(C#N)cc1 [Example 90, (R)-4-(3-(4-(4-amino-8-fluoro-6,7-dimethoxyquinazolin-2-yl)piperazin-1-yl)-1-(ethylamino)-3-oxopropyl)benzonitrile]	–	1
COc1cc2c(N)nc(N3CCN(C(=O)C[C@@H](NC(C)C)c4ccc(F)c(C#N)c4)CC3)nc2c(F)c1OC [Example 91, (R)-5-(3-(4-(4-amino-8-fluoro-6,7-dimethoxyquinazolin-2-yl)piperazin-1-yl)-1-(isopropylamino)-3-oxopropyl)-2-fluorobenzonitrile]	–	12
CCCN[C@H](CC(=O)N1CCN(c2nc(N)c3cc(OC)c(OC)c(F)c3n2)CC1)c1ccc(Cl)s1 [Example 92, (R)-1-(4-(4-amino-8-fluoro-6,7-dimethoxyquinazolin-2-yl)piperazin-1-yl)-3-(5-chlorothiophen-2-yl)-3-(propylamino)propan-1-one]	–	8
COc1cc2c(N)nc(N3CCN(C(=O)C[C@@H](NCC4CC4)c4ccsc4)CC3)nc2c(F)c1OC [Example 93, (R)-1-(4-(4-amino-8-fluoro-6,7-dimethoxyquinazolin-2-yl)piperazin-1-yl)-3-(cyclopropylmethylamino)-3-(thiophen-3-yl)propan-1-one]	–	4
COCCCN[C@H](CC(=O)N1CCN(c2nc(N)c3cc(OC)c(OC)c(F)c3n2)CC1)c1ccc(F)cc1 [Example 94, (R)-1-(4-(4-amino-8-fluoro-6,7-dimethoxyquinazolin-2-yl)piperazin-1-yl)-3-(4-fluorophenyl)-3-(3-methoxypropylamino)propan-1-one]	–	6
COc1cc2c(N)nc(N3CCN(C(=O)C[C@@H](NC(C)C)c4ccc(C#N)cc4)CC3)nc2c(F)c1OC [Example 95, (R)-4-(3-(4-(4-amino-8-fluoro-6,7-dimethoxyquinazolin-2-yl)piperazin-1-yl)-1-(isopropylamino)-3-oxopropyl)benzonitrile]	–	3
COc1cc2c(N)nc(N3CCN(C(=O)C[C@H](c4ccc(F)cc4)N4CCC4)CC3)nc2c(F)c1OC [Example 96, (R)-1-(4-(4-amino-8-fluoro-6,7-dimethoxyquinazolin-2-yl)piperazin-1-yl)-3-(azetidin-1-yl)-3-(4-fluorophenyl)propan-1-one]	–	10
COc1cc2c(N)nc(N3[C@H](C)CN(C(=O)C[C@@H](NC(C)C)c4ccc(C#N)cc4)C[C@@H]3C)nc2c(F)c1OC [Example 97, 4-((R)-3-((3R,5S)-4-(4-amino-8-fluoro-6,7-dimethoxyquinazolin-2-yl)-3,5-dimethylpiperazin-1-yl)-1-(isopropylamino)-3-oxopropyl)benzonitrile]	–	11
COc1cc2c(N)nc(N3CCN(C(=O)C[C@@H](NCCF)c4ccc(F)cc4)CC3)nc2c(F)c1OC [Example 98]	–	6
COc1cc2c(N)nc(N3CCN(C(=O)C[C@H](c4ccc(F)cc4)N4CCCCC4)CC3)nc2c(F)c1OC [Example 99, (R)-1-[4-(4-Amino-8-fluoro-6,7-dimethoxy-quinazolin-2-yl)-piperazin-1-yl]-3-(4-fluoro-phenyl)-3-piperidin-1-yl-propan-1-one]	–	6
